Assay results taken from patent publication US20080107661A1, “MUC1 and ABL” (Dana-Farber Cancer Institute, Inc., priority 2006, published 2008).

What was measured:
Assay type in all cases: cell-based, human
c-Abl [1] = assay: Nuclear and cytosolic c-Abl in HeLa/vector and HeLa/MUC1 cells after genotoxic agents (subcellular fractionation, immunoblot); settings: 2 hours
Text: (§1) Cell culture. Human HeLa cervical cancer cells, HCT116/vector (HCT116 colorectal carcinoma cells stably transfected with an empty vector), HCT116/MUC1 (HCT116 colorectal carcinoma cells stably transfected with an expression vector encoding a MUC1 polypeptide), HCT116/MUC1(Y46F) (HCT116 colorectal carcinoma cells stably transfected with an expression vector encoding a mutant MUC1 polypeptide containing an amino acid substitution at position 46 changing a tyrosine (Y) to phenylalanine (F)) colon cancer cells (Ren et al., (2002) J. Biol. Chem. 277: 17616-17622) and 293 cells were cultured in Dulbecco's modified medium with 10% heat-inactivated fetal bovine serum, 100 units/ml penicillin, 100 μg/ml streptomycin and 2 mM L-glutamine. Human ZR-75-1/vector (ZR-75-1 breast cancer cells stably transfected with an empty vector) and ZR-75-1/MUC1siRNA (ZR-75-1 breast cancer cells stably transfected with an expression vector encoding an siRNA specific for MUC1) breast cancer cells (Ren et al., (2004) Cancer Cell 5:163-175) were grown in RPMI1640 medium containing 10% heat-inactivated fetal bovine serum and antibiotics. Cells were treated with 1 μM adriamycin (ADR; Calbiochem), 100 μM cisplatin (CDDP; Sigma) or 10 μM STI571 (Gleevec; Novartis, Basel, Switzerland).
(§2) Subcellular fractionation. Nuclear fractions were prepared as described (Kharbanda et al., (1996) Cancer Res. 56:3617-3621). Cytosolic fractions were prepared as described (Hill et al., (2004) EMBO J. 23:2134-2145). Cell membrane fractions were prepared with the Plasma Membrane Extraction Kit (BioVision Research Products, Mountain View, Calif.). Mitochondria were purified as described (Ren et al., (2004) Cancer Cell 5:163-175; Ren et al., (2006) Oncogene 25:20-31).
(§3) Immunoprecipitations and immunoblot analysis. Cell lysates were prepared as described (Kharbanda et al., (1995) Nature 376:785-788); Yoshida et al., (2005) Nat. Cell Biol. 7:278-285). Soluble proteins were incubated with anti-MUC1-N (Kufe et al., (1984) Hybridoma 3:223-232), anti-MUC1-C (Ab5; Neomarker, Montreal, Quebec), anti-Flag (Sigma, St. Louis, Mo.), anti-c-Abl (Ab3; Oncogene, San Diego, Calif.) or anti-14-3-3 (Abcam Inc., Cambridge, Mass.) antibodies for 2 hours at 4° C., followed by precipitation with protein G-Sepharose beads for 1 hour. […] Intensity of the signals was determined by densitometric scanning. Statistical significance was determined by the Student's t-test.

c-Abl [2] = assay: Nuclear and cytosolic c-Abl in ZR-75-1/vector and ZR-75-1/MUC1siRNA cells after CDDP (fractionation, immunoblot)
Text: as §1, §2
Immunoprecipitations and immunoblot analysis. Cell lysates were prepared as described (Kharbanda et al., (1995) Nature 376:785-788); Yoshida et al., (2005) Nat. Cell Biol. 7:278-285). […] Intensity of the signals was determined by densitometric scanning. Statistical significance was determined by the Student's t-test.

MUC1 and c-Abl = assay: Co-immunoprecipitation of c-Abl with MUC1 (anti-MUC1-N precipitates) after CDDP; settings: HCT116/MUC1 cells; CDDP, 1, 2 and 4 hours
Description: as §3, with “hour. Immune complexes and cell lysates (50 μg) were subjected to immunoblot analysis with anti-MUC1-N, anti-MUC1-C, anti-c-Abl (Calbiochem, San Diego, Calif.), anti-lamin B (Oncogene, San Diego, Calif.), anti-IκBα (Santa Cruz Biotechnology, Santa Cruz, Calif.), anti-GFP (BD Biosciences, San Jose, Calif.), anti-Flag (Sigma, St. Louis, […].), anti-β-actin (Sigma, St. Louis, Mo.), anti-phospho-c-Abl-[…] (Cell Signaling Technology), anti-14-3-3 (Santa Cruz Biotechnology, Santa Cruz, Calif.), anti-PKC5 (Santa Cruz Biotechnology), anti-HSP60 (BD Biosciences, San Jose, Calif.), anti-PCNA (Oncogene), or anti-calnexin (Stressgen, San Diego, Calif.) antibodies.” for “hour.”

c-Abl [3] = assay: Analysis of c-Abl kinase activity (anti-c-Abl immunoprecipitates, Crk(120-225), [γ-32P]ATP); settings: HCT116 cells; CDDP, 1 hour
Description: Analysis of c-Abl kinase activity. Nuclear lysates were immunoprecipitated with anti-c-Abl (K-12) antibodies as described (Kharbanda et al., (1997) Nature 386:732-735). The precipitates were resuspended in kinase buffer (20 mM HEPES, pH 7.4, 10 mM MgCl2) containing [γ-^32P]ATP, GST-Crk(120-225) for 20 minutes at 30° C. The reaction products were analyzed by SDS-PAGE and autoradiography.

binding of MUC1 with c-Abl (MUC1 and c-Abl): increased binding of MUC1
c-Abl kinase activity (c-Abl [3]): induction of c-Abl activity
SMILES: [NH2][Pt]([NH2])([Cl])[Cl] [CDDP, cisplatin]
cytosolic c-Abl (c-Abl [1]; HeLa/vector cells, CDDP): decrease in cytosolic c-Abl
nuclear targeting of c-Abl (c-Abl [1]; HeLa/vector versus HeLa/MUC1 cells, 100 μM CDDP): MUC1 attenuates nuclear targeting of c-Abl
cytosolic c-Abl (c-Abl [2]; ZR-75-1/MUC1siRNA cells): decreased
increase of nuclear targeting of c-Abl (c-Abl [2]; ZR-75-1/MUC1siRNA cells silenced for MUC1, 2 and 4 hours): about 6 fold
nuclear targeting of c-Abl (c-Abl [2]; ZR-75-1/vector cells, 2 and 4 hours): no detectable targeting of c-Abl to the nucleus
